Measurements reported in paper PMC6272674, “Selected Compounds Structurally Related to Acyclic Sesquiterpenoids and Their Antibacterial and Cytotoxic Activity” (Molecules, 2015).
Values after ≈ are worked out from the molar mass of the structure shown.

How the values were obtained:
[1] = test system: Staphylococcus aureus ATCC 43300; assay: Micro-dilution broth MIC, Staphylococcus aureus; assay type: cell-based; conditions: ATCC43300, 24 h, 37 °C, read-out: Minimum Inhibitory Concentrations MIC
Description: (§1) The standard strains, Gram-positive: Staphylococcus aureus ATCC […], Enterococcus faecalis Van B ATCC 51299 and Enterococcus faecium VA sensitive ATCC 35667, and Gram-negative: Escherichia coli ATCC 25922, Klebsiella pneumoniae ATCC 700603 and Acinetobacter baumannii ATCC 19606, came from a collection of the Environmental Biology Department, Medical University of Łódź. The standard strains were cultivated in Columbia Agar Medium and incubated at 37 °C for 24 h in aerobic conditions.
(§2) The antibacterial activity of the racemates and E/Z-mixtures was investigated using the micro‑dilution broth method. The compounds were diluted in ethanol. This stock solution was mixed with 100 µL of Mueller-Hinton broth to obtain concentrations from 10 µg/mL to 80 µg/mL. The mixtures were then transferred to 96-well microtiter plates. The microbial suspension was standardised to a cell density of 1.5 × 10^8 CFU, which was equal to an optical density of 0.5 on the Mc Farland scale by a bio-Merieux densitometer; one well was filled with broth only to act as a control for strain growth.

[2] = test system: Klebsiella pneumoniae ATCC 700603; assay: Micro-dilution broth MIC, Klebsiella pneumoniae; assay type: cell-based; conditions: ATCC700603, 24 h, 37 °C, read-out: Minimum Inhibitory Concentrations MIC
Description: as §1, §2

[3] = test system: non-small cell lung cancer cells A549; design: method as in PMID 12753732; conditions: cited from earlier work
[4] = test system: Promyelocytic Leukaemia HL-60; assay: MTT viability, HL-60; assay type: cell-based, human; conditions: Homo sapiens, HL-60, 24 h, HL-60, MTT, range 10–1000 µM, read-out: half maximal inhibitory concentration (IC50), interpolated
In short: (§3)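 Viability is given as the optical density ratio of treated to control wells after 24 h compound treatment at 37 °C. Formazan from a 4 h MTT incubation is solubilised with SDS/DMF and measured at 570 nm.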

[5] = test system: non-small cell lung cancer cells H460; design: method as in PMID 12753732; conditions: cited from earlier work
[6] = test system: Malignant Melanoma MEWO; assay: MTT viability, MEWO; assay type: cell-based, human; conditions: Homo sapiens, 24 h, range 10–1000 µM, read-out: half maximal inhibitory concentration (IC50), interpolated
In short: (§4)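 Cells plated at 1 × 10^4 per 100 µL, treated 24 h with compounds after attachment, then MTT added for 4 h; formazan dissolved in SDS/DMF, absorbance at 570 nm. Values are treated/control optical density ratios, mean ± SD from three experiments with five replications.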

[7] = MTT viability, IEC6; assay type: cell-based; conditions: rat, IEC-6 small intestine epithelial cells, 1000 µM (IC50 exceeded 1000 µM), read-out: viability ± standard deviation at 1000 µM
In short: as §4

[8] = test system: Escherichia coli ATCC 25922; assay: Micro-dilution broth MIC, Escherichia coli; assay type: cell-based; conditions: ATCC25922, 24 h, 37 °C, read-out: Minimum Inhibitory Concentrations MIC
Description: as §1, §2

[9] = test system: Mycobacterium smegmatis mc^2 155 ATCC 700084; design: method as in PMID 21042264; conditions: micro-dilution, NCCLS guidelines; cited from earlier work
[10] = test system: Enterococcus faecalis ATCC 51299; assay: Micro-dilution broth MIC, Enterococcus faecalis; assay type: cell-based; conditions: ATCC51299, 24 h, 37 °C, read-out: Minimum Inhibitory Concentrations MIC
Description: as §1, §2

[11] = test system: Acinetobacter baumannii ATCC 19606; assay: Micro-dilution broth MIC, Acinetobacter baumannii; assay type: cell-based; conditions: ATCC19606, 24 h, 37 °C, read-out: Minimum Inhibitory Concentrations MIC
Description: as §1, §2

[12] = test system: Staphylococcus aureus FDA209P; design: method as in PMID 19078849; conditions: 1 × 10^5 CFU, 48 h with shaking, turbidimetric; cited from earlier work
[13] = test system: Fibroblasts HFIG; assay: MTT viability, HFIG; assay type: cell-based, human; conditions: Homo sapiens, Fibroblast, 24 h, range 10–1000 µM, read-out: half maximal inhibitory concentration (IC50), interpolated
In short: as §4

[14] = test system: Enterococcus faecium ATCC 35667; assay: Micro-dilution broth MIC, Enterococcus faecium; assay type: cell-based; conditions: ATCC35667, 24 h, 37 °C, read-out: Minimum Inhibitory Concentrations MIC
Description: as §1, §2

[15] = test system: Keratinocytes HaCaT; assay: MTT viability, HaCaT; assay type: cell-based, human; conditions: Homo sapiens, 24 h, range 10–1000 µM, read-out: half maximal inhibitory concentration (IC50), interpolated
In short: as §4

[16] = test system: Colorectal Adenocarcinoma HT29; assay: MTT viability, HT29; assay type: cell-based, human; conditions: Homo sapiens, HT-29, 24 h, range 10–1000 µM, read-out: half maximal inhibitory concentration (IC50), interpolated
In short: as §4

[17] = test system: Enterococcus faecium ATCC 35667; design: method as in doi:10.1002/ffj.3238; conditions: data presented by the authors before; cited from earlier work
[18] = MTT viability, HL-60; assay type: cell-based, human; conditions: human, HL-60 promyelocytic leukaemia cells, HL-60, MTT, 1000 µM (IC50 exceeded 1000 µM), read-out: viability ± standard deviation at 1000 µM
In short: as §3

[19] = MTT viability, MEWO; assay type: cell-based, human; conditions: human, MEWO malignant melanoma cells, 1000 µM (IC50 exceeded 1000 µM), read-out: viability ± standard deviation at 1000 µM
In short: as §4

[20] = test system: Escherichia coli ATCC 25922; design: method as in doi:10.1002/ffj.3238; conditions: data presented by the authors before; cited from earlier work
[21] = test system: Klebsiella pneumoniae ATCC 700603; design: method as in doi:10.1002/ffj.3238; conditions: data presented by the authors before; cited from earlier work
[22] = test system: Enterococcus faecalis ATCC 51299; design: method as in doi:10.1002/ffj.3238; conditions: data presented by the authors before; cited from earlier work
[23] = MTT viability, HFIG; assay type: cell-based, human; conditions: human, HFIG (HFIB-G) gingival fibroblasts, 1000 µM (IC50 exceeded 1000 µM), read-out: viability ± standard deviation at 1000 µM
In short: as §4

[24] = test system: Staphylococcus aureus ATCC 43300; design: method as in doi:10.1002/ffj.3238; conditions: data presented by the authors before; cited from earlier work
[25] = MTT viability, HaCaT; assay type: cell-based, human; conditions: human, HaCaT keratinocytes, 1000 µM (IC50 exceeded 1000 µM), read-out: viability ± standard deviation at 1000 µM
In short: as §4

[26] = MTT viability, HT29; assay type: cell-based, human; conditions: human, HT29 colorectal adenocarcinoma cells, 1000 µM (IC50 exceeded 1000 µM), read-out: viability ± standard deviation at 1000 µM
In short: as §4

[27] = test system: Acinetobacter baumannii ATCC 19606; design: method as in doi:10.1002/ffj.3238; conditions: data presented by the authors before; cited from earlier work
[28] = test system: colon carcinoma HCT-8 cells; design: method as in PMID 19084293; conditions: cited from earlier work
[29] = test system: human melanoma MDA/MB‑435 cell lines; design: method as in PMID 19084293; conditions: cited from earlier work

Compound	IC50 [4] [µM]	viability at 24 h, 1000 µM [7] [%]	Minimum Inhibitory Concentrations MIC [17] [µg/mL]	viability at 24 h, 1000 µM [18] [%]	viability at 24 h, 1000 µM [19] [%]	Minimum Inhibitory Concentrations MIC [20] [µg/mL]	Minimum Inhibitory Concentrations MIC [21] [µg/mL]	Minimum Inhibitory Concentrations MIC [22] [µg/mL]	viability at 24 h, 1000 µM [23] [%]	Minimum Inhibitory Concentrations MIC [24] [µg/mL]	viability at 24 h, 1000 µM [25] [%]	viability at 24 h, 1000 µM [26] [%]	Minimum Inhibitory Concentrations MIC [27] [µg/mL]	further results
CC(C)=CCC/C(C)=C/CC/C(C)=C/CO [Farnesol (4), farnesol, reference compound]	54	58	–	–	–	–	–	–	–	–	–	–	–	MIC [1]: 26 µg/mL (≈ 117 µM); MIC [2]: 16 µg/mL (≈ 72 µM); IC50 [3]: ~4.5 µM; IC50 [5]: ~4.5 µM; IC50 [6]: 378 µM; MIC [8]: 28 µg/mL (≈ 126 µM); MIC [9]: 64 µg/mL (≈ 288 µM); MIC [10]: 18 µg/mL (≈ 80.9 µM); MIC [11]: 18 µg/mL (≈ 80.9 µM); concentration at which active [12]: ≥ 10 µg/mL; IC50 [13]: 350 µM; MIC [14]: 16 µg/mL (≈ 72 µM); IC50 [15]: 489 µM; IC50 [16]: 930 µM
CC(=O)CCC=C(C)C(C)CCCC(C)C (stereo not drawn) [Compound 8]	–	97	28	72	94	18	18	26	81	38	90	111	22	–
C=CC(C)(O)CC/C=C(\C)CCC=C(C)C (stereo not drawn) [Nerolidol (2), nerolidol, reference compound]	~135	76	32	–	99	46	16	38	75	48	102 ± 5	103	26	toxicity [28]: no toxicity; toxicity [29]: no toxicity
CC(=O)CCC=C(C)CC(C)CCC=C(C)C (stereo not drawn) [Compound 9]	–	76	14	69	83	28	18	18	85	28	89	107	16	–
CC(=O)CCC=C(C)C(C)CCC=C(C)C (stereo not drawn) [Compound 6]	–	95	16	67	102	14	14	18	83	26	118	102	12	–
